pIC50: −log10 of the molar value.
How the values were obtained:
[1] = Inhibition of jack bean alpha-mannosidase
[2] = Compound was evaluated for inhibition of alpha-galactosidase from green coffee beans (sigma G 8507).
[3] = Compound was evaluated for inhibition of beta-glucosidase from almonds(sigma G 4511).
[4] = Compound was evaluated for inhibition of beta-galactosidase from aspergillus oryzae (sigma G 7256).
[5] = Compound was evaluated for inhibition of alpha-fucosidase from bovine kidney(sigma F 5884).

CCCCN1CC(C)C(O)C(O)C1 (stereo not given) [1-Butyl-5-methyl-piperidine-3,4-diol]
pIC50 [1]: < 3.00 | pIC50 [2]: < 3.00 | pIC50 [3]: 4.10 | pIC50 [4]: < 3.00 | pIC50 [5]: 3.57
